Data as given in ChEMBL document CHEMBL3804786, “Novel 1,3-thiazolidin-4-one derivatives as promising anti-Candida agents endowed with anti-oxidant and chelating properties” (Eur J Med Chem, 2016).
Converted amounts (≈) assume the structure as drawn.

Tests used:
[1] = system: Staphylococcus aureus; experiment: Antibacterial activity against Staphylococcus aureus clinical isolate after 18 to 22 hrs by broth microdilution method; format: functional
[2] = system: Staphylococcus warneri; experiment: Antibacterial activity against Staphylococcus warneri clinical isolate after 18 to 22 hrs by broth microdilution method; format: functional
[3] = system: Enterococcus faecalis; experiment: Antibacterial activity against Streptococcus faecalis clinical isolate after 18 to 22 hrs by broth microdilution method; format: functional
[4] = system: Escherichia coli; experiment: Antibacterial activity against Escherichia coli after clinical isolate 18 to 22 hrs by broth microdilution method; format: functional
[5] = system: Proteus mirabilis; experiment: Antibacterial activity against Proteus mirabilis clinical isolate after 18 to 22 hrs by broth microdilution method; format: functional
[6] = system: Enterobacter sp.; experiment: Antibacterial activity against Enterobacter spp. clinical isolate after 18 to 22 hrs by broth microdilution method; format: functional
[7] = system: Klebsiella oxytoca; experiment: Antibacterial activity against Klebsiella oxytoca clinical isolate after 18 to 22 hrs by broth microdilution method; format: functional
[8] = system: Candida albicans; experiment: Antifungal activity against Candida albicans clinical isolate after 24 hrs by broth microdilution method; format: functional
[9] = system: Nakaseomyces glabratus; experiment: Antifungal activity against Candida glabrata clinical isolate after 24 hrs by broth microdilution method; format: functional
[10] = system: Candida tropicalis; experiment: Antifungal activity against Candida tropicalis clinical isolate after 24 hrs by broth microdilution method; format: functional
[11] = system: Pichia kudriavzevii; experiment: Antifungal activity against Candida krusei clinical isolate after 24 hrs by broth microdilution method; format: functional
[12] = system: Candida parapsilosis; experiment: Antifungal activity against Candida parapsilosis clinical isolate after 24 hrs by broth microdilution method; format: functional; conditions: Lodderomyces parapsilosis
[13] = system: [Candida] sake; experiment: Antifungal activity against Candida sake clinical isolate after 24 hrs by broth microdilution method; format: functional; conditions: Fermentozyma sake
[14] = system: Streptococcus sp. (viridans group); experiment: Antibacterial activity against Streptococcus alpha-hemolyticus clinical isolate after 18 to 22 hrs by broth microdilution method
[15] = Antioxidant activity of the compound after 90 mins by phosphomolybdenum assay; format: physicochemical
[16] = Antioxidant activity of the compound after 30 mins by FRAP assay; format: physicochemical
[17] = Antioxidant activity of the compound after 30 mins by CUPRAC method; format: physicochemical
[18] = Antioxidant activity assessed as DPPH radical scavenging activity after 30 mins under dark conditions; format: physicochemical
[19] = Antioxidant activity assessed as ABTS radical scavenging activity after 30 mins under dark conditions; format: physicochemical
[20] = Metal chelating activity of the compound assessed as ferrous ion complex formation after 10 mins; format: physicochemical

Row | SMILES | MIC [1] [µg/mL] | MIC [2] [µg/mL] | MIC [3] [µg/mL] | MIC [4] [µg/mL] | MIC [5] [µg/mL] | MIC [6] [µg/mL] | MIC [7] [µg/mL] | MIC [8] [µg/mL] | MIC [9] [µg/mL] | MIC [10] [µg/mL] | MIC [11] [µg/mL] | MIC [12] [µg/mL] | MIC [13] [µg/mL] | MIC [14] [µg/mL] | EC50 [15] [µM] | EC50 [16] [µM] | EC50 [17] [µM] | IC50 [18] [µM] | IC50 [19] [µM] | IC50 [20] [µM]
1 | CC(C)=N/N=C1\SCC(=O)N1Cc1ccccc1F | > 256 | > 256 | > 256 | > 256 | > 256 | > 256 | > 256 | 8 (≈ 28.6 µM) | 2 (≈ 7.16 µM) | 4 (≈ 14.3 µM) | 8 (≈ 28.6 µM) | 4 (≈ 14.3 µM) | 8 (≈ 28.6 µM) | > 256 | – | – | – | – | – | –
2 | C/C(=N\N=C1/SCC(=O)N1Cc1ccccc1F)c1ccccn1 | > 256 | > 256 | > 256 | > 256 | > 256 | > 256 | > 256 | 4 (≈ 11.7 µM) | 8 (≈ 23.4 µM) | 4 (≈ 11.7 µM) | 4 (≈ 11.7 µM) | 4 (≈ 11.7 µM) | 8 (≈ 23.4 µM) | > 256 | – | – | – | – | – | –
3 | C/C(=N/N=C1\SCC(=O)N1Cc1ccc(Cl)cc1)c1cccs1 | > 256 | > 256 | > 256 | > 256 | > 256 | > 256 | > 256 | 4 (≈ 11 µM) | 2 (≈ 5.5 µM) | 8 (≈ 22 µM) | 8 (≈ 22 µM) | 4 (≈ 11 µM) | 8 (≈ 22 µM) | > 256 | – | – | – | – | – | –
4 | C/C(=N/N=C1\SCC(=O)N1Cc1ccc(Cl)cc1)c1ccccn1 | > 256 | > 256 | > 256 | > 256 | > 256 | > 256 | > 256 | 8 (≈ 22.3 µM) | 4 (≈ 11.1 µM) | 8 (≈ 22.3 µM) | 8 (≈ 22.3 µM) | 4 (≈ 11.1 µM) | 8 (≈ 22.3 µM) | > 256 | – | – | – | – | – | –
5 | Nc1ccc(CN2C(=O)CS/C2=N\N=C2CCCC2)cc1 | > 256 | > 256 | > 256 | > 256 | > 256 | > 256 | > 256 | 2 (≈ 6.61 µM) | 16 (≈ 52.9 µM) | 32 (≈ 106 µM) | 16 (≈ 52.9 µM) | 64 (≈ 212 µM) | 256 (≈ 847 µM) | > 256 | – | – | – | – | – | –
6 | CC(C)=N/N=C1\SCC(=O)N1Cc1ccc(N)cc1 | > 256 | > 256 | > 256 | > 256 | > 256 | > 256 | > 256 | 4 (≈ 14.5 µM) | 1 (≈ 3.62 µM) | 32 (≈ 116 µM) | 2 (≈ 7.24 µM) | 2 (≈ 7.24 µM) | 4 (≈ 14.5 µM) | > 256 | 1200 | 2760 | 1770 | > 5000 | 2040 | > 5000
7 | O=C1CS/C(=N\N=C2CCCC2)N1Cc1cccc([N+](=O)[O-])c1 | > 256 | > 256 | > 256 | > 256 | > 256 | > 256 | > 256 | 4 (≈ 12 µM) | 16 (≈ 48.1 µM) | 4 (≈ 12 µM) | 8 (≈ 24.1 µM) | 4 (≈ 12 µM) | 2 (≈ 6.02 µM) | > 256 | – | – | – | – | – | –
8 | C/C(=N\N=C1/SCC(=O)N1Cc1cccc([N+](=O)[O-])c1)c1ccccn1 | > 256 | > 256 | > 256 | > 256 | > 256 | > 256 | > 256 | 4 (≈ 10.8 µM) | 2 (≈ 5.41 µM) | 8 (≈ 21.7 µM) | 8 (≈ 21.7 µM) | 8 (≈ 21.7 µM) | 4 (≈ 10.8 µM) | > 256 | – | – | – | – | – | –
9 | C/C(=N/N=C1\SCC(=O)N1Cc1ccc(N)cc1)c1cccs1 | > 256 | > 256 | > 256 | > 256 | > 256 | > 256 | > 256 | 4 (≈ 11.6 µM) | 8 (≈ 23.2 µM) | 2 (≈ 5.81 µM) | 8 (≈ 23.2 µM) | 8 (≈ 23.2 µM) | 2 (≈ 5.81 µM) | > 256 | – | – | – | – | – | –
10 | C/C(=N/N=C1\SCC(=O)N1Cc1ccc(N)cc1)c1ccccn1 | > 256 | > 256 | > 256 | > 256 | > 256 | > 256 | > 256 | 2 (≈ 5.89 µM) | 8 (≈ 23.6 µM) | 2 (≈ 5.89 µM) | 8 (≈ 23.6 µM) | 8 (≈ 23.6 µM) | 2 (≈ 5.89 µM) | > 256 | – | – | – | – | – | –
11 | C/C(=N\N=C1/SCC(=O)N1Cc1cccc([N+](=O)[O-])c1)c1cccs1 | > 256 | > 256 | > 256 | > 256 | > 256 | > 256 | > 256 | 4 (≈ 10.7 µM) | 2 (≈ 5.34 µM) | 4 (≈ 10.7 µM) | 2 (≈ 5.34 µM) | 8 (≈ 21.4 µM) | 4 (≈ 10.7 µM) | > 256 | – | – | – | – | – | –
12 | C/C(=N/N=C1\SCC(=O)N1Cc1ccccc1[N+](=O)[O-])c1ccccn1 | > 256 | > 256 | > 256 | > 256 | > 256 | > 256 | > 256 | 2 (≈ 5.41 µM) | 2 (≈ 5.41 µM) | 4 (≈ 10.8 µM) | 4 (≈ 10.8 µM) | 16 (≈ 43.3 µM) | 2 (≈ 5.41 µM) | > 256 | – | – | – | – | – | –
13 | O=C1CS/C(=N\N=C2CCCC2)N1Cc1ccccc1[N+](=O)[O-] | > 256 | > 256 | > 256 | > 256 | > 256 | > 256 | > 256 | 4 (≈ 12 µM) | 2 (≈ 6.02 µM) | 8 (≈ 24.1 µM) | 4 (≈ 12 µM) | 16 (≈ 48.1 µM) | 4 (≈ 12 µM) | > 256 | – | – | – | – | – | –
14 | CC(C)=N/N=C1\SCC(=O)N1Cc1ccccc1[N+](=O)[O-] | > 256 | > 256 | > 256 | > 256 | > 256 | > 256 | > 256 | 2 (≈ 6.53 µM) | 4 (≈ 13.1 µM) | 8 (≈ 26.1 µM) | 2 (≈ 6.53 µM) | 16 (≈ 52.2 µM) | 4 (≈ 13.1 µM) | > 256 | – | – | – | – | – | –
15 | O=C(O)CN(CCN(CC(=O)O)CC(=O)O)CC(=O)O [EDETIC ACID] | – | – | – | – | – | – | – | – | – | – | – | – | – | – | – | – | – | – | – | 20
16 | Cc1c(C)c2c(c(C)c1O)CCC(C)(C(=O)O)O2 (stereo not drawn) [TROLOX] | – | – | – | – | – | – | – | – | – | – | – | – | – | – | 1130 | 160 | 240 | 400 | 660 | –
